Read-outs that look alike come from different tables or passages of the source.
Columns and labels:
hP2X3 = molecular target: T1, hP2X3 (Homo sapiens, UniProt P56373); assay: FLIPR calcium flux assay, antagonistic activity against hP2X3 receptor; type: cell-based; conditions: 1321N1/hP2X3 cells, agonist α,β-meATP 500 nM
T1 construct: host or cells: 1321N1 cells
T1 sequence (P56373 1-397): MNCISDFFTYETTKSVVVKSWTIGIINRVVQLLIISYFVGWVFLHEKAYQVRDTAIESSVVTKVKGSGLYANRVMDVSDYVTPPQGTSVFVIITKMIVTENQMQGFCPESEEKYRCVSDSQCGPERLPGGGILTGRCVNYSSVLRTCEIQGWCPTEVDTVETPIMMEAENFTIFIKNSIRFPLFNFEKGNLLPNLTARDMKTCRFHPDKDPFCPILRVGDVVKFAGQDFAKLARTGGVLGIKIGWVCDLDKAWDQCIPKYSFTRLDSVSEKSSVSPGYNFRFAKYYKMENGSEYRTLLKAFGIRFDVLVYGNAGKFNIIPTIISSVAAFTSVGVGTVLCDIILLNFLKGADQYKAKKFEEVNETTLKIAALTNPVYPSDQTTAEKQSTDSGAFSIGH
Description: The compounds were screened for antagonistic activity against hP2X3 and hP2X2/3 receptors (changes in calcium flux signals represent the effect of the compounds on ion channels) by an FLIPR assay.
1321N1 cells (adherent cells) stably transfected with hP2X3 and hP2X2/3 receptors were digested, centrifuged, resuspended in a plating medium (DMEM+10% DFBS) and counted, adjusted to 2×10^5 cells/mL. The cells were seeded in a 384-well assay plate at 50 μL/well, and incubated in an incubator at 37° C. with 5% CO2 for 16-24 h. Test compounds (20 mM DMSO stock solution) that were 180 times the desired concentration were prepared with DMSO, and added to a 384-well compound plate at 500 nL/well. Then, each well was supplemented with 30 μL of FLIPR buffer (lx HBSS containing 1.26 mM Ca^2++2 mM CaCl2)+20 mM HEPES), and the mixture was shaken for 20-40 min to be mixed well. The agonist α,β-meATP (final concentration of 500 nM for hP2X3 cells and final concentration of 1000 nM for hP2X2/3 cells) that was 3 times the desired concentration was prepared with an FLIPR buffer, and added to another 384-well compound plate at 35 μL/well. The cell plate in which cells had been plated and cultured for 16-24 h was taken out, and the cell supernatant was removed by pipetting. 30 μL of dye (FLIPR® calcium 4 assay kit, diluted with an FLIPR buffer) was added to each well, and the plate was incubated for 1 h. 15 μL of the compound was added to each well containing cells (dosing using an FLIPR instrument), and after 15 min, 22.5 μL of agonist was added to each well and the fluorescent signal was detected (excitation wavelength: 470-495 nm, emission wavelength: 515-575 nm). With the difference between the peak and the trough of the signal taken as the basic data, the data of the highest concentration of the positive drug taken as the 100% inhibition rate, and the data of DMSO taken as the 0% inhibition rate, the inhibition effect curves of the compounds were fitted on the software Graphpad Prism 6 and IC50 values were calculated.

[1] = In vitro metabolic stability in human hepatocytes; type: in vitro ADME; conditions: human hepatocytes 1×10^6 cells/mL, 37° C., up to 120 min; read-out: Intrinsic clearance (uL/min/10^6 cells)
Description: The concentrations of the test compounds in the reaction system were determined by LC/MS/MS, so that the intrinsic clearance of the test compounds was calculated, and the in vitro metabolic stability in human hepatocytes was evaluated.
247.5 μL of a mixed solution of human hepatocytes at 1×10^6 cells/mL (purchased from BioreclamationIVT, Cat. No. S01205) and 2.5 μL of 100 μM test compound or positive control was added to a plate to initiate the reaction. The plate was incubated at 37° C. and 600 rpm. 20 μL of incubation system was transferred to a stop plate at 0.5 min, 5 min, 15 min, 30 min, 45 min, 60 min, 80 min, 100 min and 120 min. Then, the mixture was vortexed for 2 min to be mixed well. The stop plate was centrifuged at 4000 rpm for 20 min. 40 μL of supernatant of each compound was transferred to a 96-well sample template, after which 160 μL of pure water was added to dilute the samples.
The resulting samples were quantified from ion chromatogram. The residual rate was calculated from the peak area of the test compound or the positive control. Slope k was determined by linear regression of the […] of residual rates versus incubation time using Microsoft Excel.
Intrinsic clearance (in vitro CLint, μL/min/10^6 cells) was calculated from the slope value according to the following equation:
V=incubation volume (0.25 mL);
N=number of cells per well (0.25×10^6 cells)

CYP2C19 = molecular target: T2, CYP2C19 (Homo sapiens, UniProt P33261); assay: CYP inhibition assay in pooled human liver microsomes (S-mephenytoin); type: in vitro ADME
T2 construct: 150-donor pooled human liver microsomes (purchased from Corning, Cat. No. 452117); tissue Corning 452117; host or cells: 150-donor pooled human liver microsomes
Description: (§1) The metabolic reactions of representative substrates of 5 major human CYP subtypes (CYP1A2, CYP2C9, CYP2C19, CYP2D6, CYP3A4/5) were evaluated using 150-donor pooled human liver microsomes (purchased from Corning, Cat. No. 452117). The effects of different concentrations of the test compounds on the metabolic reactions of phenacetin (CYP1A2), diclofenac sodium (CYP2C9), S-mephenytoin (CYP2C19), bufuralol hydrochloride (CYP2D6) and midazolam (CYP3A4/5) were determined by liquid chromatography-tandem mass spectrometry (LC/MS/MS).
(§2) 30 μM phenacetin, 10 μM diclofenac sodium, 35 μM S-mephenytoin, 5 μM bufuralol hydrochloride, 3 μM midazolam, 1 mM NADPH, and test compounds (at concentrations of 0.1 μmol/L, 0.3 μmol/L, 1 μmol/L, 3 μmol/L, 10 μmol/L, and 30 μmol/L, respectively) or positive compound or blank were incubated with 200 μL of a reaction system of pooled human liver microsomes (0.2 mg/mL) (100 mmol/L phosphate buffer, pH 7.4, containing 0.3% by volume of DMSO, 0.6% by volume of acetonitrile, and 0.1% by volume of methanol) at 37° C. for 5 min. Then, 200 μL of acetonitrile containing 3% formic acid and 40 nM internal standard verapamil was added, and the mixture was centrifuged at 4000 rpm for 50 min. The mixture was cooled on ice for 20 min and centrifuged at 4000 rpm for 20 min to precipitate the protein. 200 μL of the supernatant was analyzed by LC/MS/MS.
(§3) The peak area was calculated from the chromatogram. The residual activity rate (%) was calculated by the following formula:
(§4) peak area rate=peak area of metabolite/peak area of internal standard
(§5) residual activity rate (%)=peak area proportion of the test compound group/peak area proportion of the blank group
(§6) The half maximal inhibitory concentrations (IC50) against CYP were calculated by Excel XLfit 5.3.1.3.

CYP3A4/5 = assay: CYP inhibition assay in pooled human liver microsomes (midazolam); type: in vitro ADME; conditions: pH 7.4, probe midazolam (3 μM), human liver microsomes 0.2 mg/mL, substrate midazolam, read-out: CYP 3A4/5 (μM) IC50
Description: as §1, §2, §3, §4, §5, §6

[2] = human liver microsomes 0.2 mg/mL, substrate S-mephenytoin, read-out: CYP 2C19 (μM) IC50

T2 sequence (P33261 whole entry): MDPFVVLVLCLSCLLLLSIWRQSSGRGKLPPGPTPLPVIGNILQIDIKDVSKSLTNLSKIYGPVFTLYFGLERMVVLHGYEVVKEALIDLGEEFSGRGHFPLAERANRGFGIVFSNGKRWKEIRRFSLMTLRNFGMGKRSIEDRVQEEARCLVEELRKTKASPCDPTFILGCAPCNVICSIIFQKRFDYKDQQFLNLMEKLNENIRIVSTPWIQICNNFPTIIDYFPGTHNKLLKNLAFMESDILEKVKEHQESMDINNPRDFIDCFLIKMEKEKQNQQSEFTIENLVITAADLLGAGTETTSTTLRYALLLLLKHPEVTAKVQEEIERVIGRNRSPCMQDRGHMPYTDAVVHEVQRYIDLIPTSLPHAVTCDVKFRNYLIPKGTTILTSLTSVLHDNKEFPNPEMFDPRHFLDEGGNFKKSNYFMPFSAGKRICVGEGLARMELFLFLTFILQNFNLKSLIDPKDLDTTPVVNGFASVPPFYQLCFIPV

SMILES	IC50 (hP2X3) [µM]	hepatocyte CLint at 1 μM [1] [µL/min/1e6 cells]	IC50 (CYP2C19; [2]) [µM]	IC50 at 5 min (CYP3A4/5) [µM]	IC50 (CYP2C19) [µM]
CC(=O)N1CCOC(Cn2c(-c3c(F)cc(N4CCCC4=O)cc3F)nc3cc(C)ccc32)C1 (stereo in doubt) [Compound 1]	0.0368	< 1	13	> 30	
COC(=O)N1CCOC(Cn2c(-c3c(F)cc(N4CCCC4=O)cc3F)nc3cc(C)ccc32)C1 (stereo not shown) [Compound 2, Methyl 2-((2-(2,6-difluoro-4-(2-carbonylpyrrolidin-1-yl)phenyl)-5-methyl-1H-benzo[d]imidazol-1-yl)methyl)morpholine-4-carboxylate]	0.105	2.98	14.6	> 30	
CC(=O)N1CCO[C@@H](Cn2c(-c3ccc(N4CCCC4=O)cc3Cl)nc3cc(C)ccc32)C1 [Compound 3, (S)-1-(4-(1-((4-acetylmorpholin-2-yl)methyl)-5-methyl-1H-benzo[d]imidazol-2-yl)-3-chlorophenyl)pyrrolidin-2-one]	0.0412	4.08	> 30	> 30	
COC(=O)N1CCO[C@@H](Cc2c(-c3c(F)cc(N4CCCC4=O)cc3F)nc3cc(C)ccn23)C1 [Compound 9, Methyl (S)-2-((2-(2,6-difluoro-4-(2-carbonylpyrrolidin-1-yl)phenyl)-7-methylimidazo[1,2-a]pyridin-3-yl)methyl)morpholine-4-carboxylate]	0.0758	3.86		12.9	12.9

More lines, main results first:

IC50 (hP2X3) [µM]	hepatocyte CLint at 1 μM [1] [µL/min/1e6 cells]	IC50 (CYP2C19; [2]) [µM]	IC50 at 5 min (CYP3A4/5) [µM]	SMILES	IC50 (CYP2C19) [µM]
0.0316	< 1	> 30	> 30	CC(=O)N1CCO[C@@H](Cn2c(-c3c(F)cc(N4CCCC4=O)cc3Cl)nc3cc(C)ccc32)C1 [Compound 4, (S)-1-(4-(1-((4-acetylmorpholin-2-yl)methyl)-5-methyl-1H-benzo[d]imidazol-2-yl)-3-chloro-5-fluorophenyl)pyrrolidin-2-one]	
0.0541	< 1	> 30	> 30	CC(=O)N1CCO[C@@H](Cn2c(-c3c(F)cc(N4CCCC4=O)cc3F)nc3cc(Cl)ccc32)C1 [Compound 10, (S)-1-(4-(1-((4-acetylmorpholin-2-yl)methyl)-5-chloro-1H-benzo[d]imidazol-2-yl)-3,5-difluorophenyl)pyrrolidin-2-one]	
0.033	< 1	> 30	> 30	[2H]C([2H])([2H])c1ccc2c(c1)nc(-c1c(F)cc(N3CCCC3=O)cc1F)n2C[C@H]1CN(C(C)=O)CCO1 [Compound 14, (S)-1-(4-(1-((4-acetylmorpholin-2-yl)methyl)-5-(methyl-d3)-1H-benzo[d]imidazol-2-yl)-3,5-difluorophenyl)pyrrolidin-2-one]	
